The target in test [1] is T1, L-AChBP (Lymnaea stagnalis, UniProt P58154).
T1 construct: made in house; host or cells: stably transfected HEK293S-GnTI- cells
Put plainly: Stopped-flow Trp fluorescence kinetic and equilibrium binding to purified L-AChBP. The following applies: for Kd / kon / koff: L-AChBP. The protocol:
(§1) Equilibrium dissociation constants were determined either from ratios (Kd/(koff/kon)) of rate constants determined using multiple kinetic means (kon, koff, koff/GAL) or directly from stopped-flow measurements (Kd/SFeq, Kd/SPAeq) (see Experimental Procedures).
(§2) The procedures for stable expression and purification of A- and L-AChBPs are described in Appendix D. Rate constants for association (kon) and dissociation (koff) were determined by multiple kinetic means, largely as previously described. Measurement of kon and koff values entailed the direct admixture of reactants and monitoring the quenching of AChBP native Trp fluorescence. Individual rate constants were determined from linear regression of the experimental mono-exponential decay of Trp fluorescence intensity (kobs) using the linear “approach-to-equilibrium” relationship kobs = kon[spiroimine] + koff (Equation (3)). Additional measurements of koff (koff/GAL) employed stopped-flow measurement of the rate of occupation of free AChBP binding sites by a competing ligand (gallamine, used in large excess relative to its Kd) to form a non-quenching gallamine-AChBP complex. Equilibrium dissociation constants were determined either from the ratios of rate constants (Kd/(koff/kon)), or from stopped-flow measurements of the rates of gallamine or epibatidine binding to pre-equilibrated spiroimine-AChBP complexes formed using increasing spiroimine concentrations (Kd/SFeq), or by the scintillation proximity assay (SPA) where spiroimine competition against the binding of [^3H]epibatidine (to L-AChBP) or [^3H]methyllycaconitine (to A-AChBP) was monitored at equilibrium (Kd/SPAeq). […] The time course of [^3H]ligand binding was monitored over several hours.
(§3) A- and L-AChBP, flanked with an N-terminal FLAG epitope with residues numbered (-8)[…](0), were expressed as soluble, exported proteins using synthetic cDNA and stably-transfected HEK293S-GnTI^− cells selected for G418 resistance, and cultured in Dulbecco’s modified Eagle’s medium (MediaTech CellGro, Albany, NY, USA) containing fetal bovine serum (FBS) 2% (v/v). The conditioned medium was collected every 1–3 days for up to 4 weeks, supplemented with NaN3 0.02% (w/v) and stored at 4 °C. AChBPs were purified on immobilized anti-FLAG M2 antibody (Sigma-Aldrich) with elution using FLAG peptide 100 μg/mL in TRIS-HCl 50 mM pH 7.4, NaCl 150 mM, NaN3 0.02% (w/v). Purified proteins were dialyzed against the same buffer, concentrated by ultrafiltration, filtered on a 0.22 µm membrane, and stored on ice at 4 °C.

Test [2] addresses T2, A-AChBP (Aplysia californica, UniProt Q8WSF8). Put plainly: Stopped-flow Trp fluorescence kinetic and equilibrium binding to purified A-AChBP. The following applies: for kon / koff / Kd: A-AChBP. The procedure:
as §1, §2, §3
Target sequence in this assay (Q8WSF8 entry or part of it): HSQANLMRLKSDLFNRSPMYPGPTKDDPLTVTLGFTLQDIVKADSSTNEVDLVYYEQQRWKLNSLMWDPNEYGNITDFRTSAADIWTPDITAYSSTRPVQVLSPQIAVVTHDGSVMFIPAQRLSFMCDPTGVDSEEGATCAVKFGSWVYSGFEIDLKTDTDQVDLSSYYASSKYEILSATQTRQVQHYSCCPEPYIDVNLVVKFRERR

The target in test [3] is T2, A-AChBP. Put plainly: Scintillation proximity assay, competition against [3H]methyllycaconitine binding to A-AChBP. Also on record: made in house; host or cells: stably transfected HEK293S-GnTI- cells. The protocol:
as §1, §2
(§4) A- and L-AChBP, flanked with an N-terminal FLAG epitope with residues numbered (-8)[…](0), were expressed as soluble, exported proteins using synthetic cDNA and stably-transfected HEK293S-GnTI^− cells selected for G418 resistance, and cultured in Dulbecco’s modified Eagle’s medium (MediaTech CellGro, Albany, NY, USA) containing fetal bovine serum (FBS) 2% (v/v). […]
Target sequence in this assay (Q8WSF8 entry or part of it): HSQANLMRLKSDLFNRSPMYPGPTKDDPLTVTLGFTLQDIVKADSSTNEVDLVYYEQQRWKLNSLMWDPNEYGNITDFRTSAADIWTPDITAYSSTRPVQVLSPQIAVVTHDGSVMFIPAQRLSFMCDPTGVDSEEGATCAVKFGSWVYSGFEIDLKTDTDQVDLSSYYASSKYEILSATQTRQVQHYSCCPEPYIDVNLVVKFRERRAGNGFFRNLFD

The target in test [4] is T1, L-AChBP. Put plainly: Scintillation proximity assay, competition against [3H]epibatidine binding to L-AChBP. The protocol:
as §1, §2, §4

Where [5] appears, read: calculated from the rate constants, read-out: Kd/(koff/kon).
[6] abbreviates: quenching of native Trp fluorescence.
Where [7] appears, read: quenching of native Trp fluorescence, read-out: koff (converted).
Setting [8] is: stopped-flow on pre-equilibrated complexes, single experiment in triplicate, read-out: Kd/SFeq.
Setting [9] is: stopped-flow with competing gallamine in large excess, read-out: koff/GAL (converted).
Where [10] appears, read: Kd/(koff/kon), calculated from the rate constants.
The mark [11] stands for this setting: Kd/SFeq, stopped-flow on pre-equilibrated complexes, single experiment in triplicate.
Where [12] appears, read: read-out: Kd values (range of magnitude).

Like-named read-outs stand apart in the source and are kept apart here.

T1 sequence (P58154 20-229): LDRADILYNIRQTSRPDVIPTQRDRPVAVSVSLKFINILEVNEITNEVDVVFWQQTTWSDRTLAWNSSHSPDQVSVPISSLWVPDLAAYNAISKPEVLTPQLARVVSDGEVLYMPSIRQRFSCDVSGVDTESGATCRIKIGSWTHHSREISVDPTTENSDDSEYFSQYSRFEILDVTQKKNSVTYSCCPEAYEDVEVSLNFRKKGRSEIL

With `CC1=NCCCC12CCCCC21OCCO1` (racemic) [Racemic (±)-4, 7-methyl-1,4-dioxa-8-azadispiro[4.0.5.4]pentadec-7-ene], the Kd is 1700 nM on L-AChBP [1] (setting [5]); 15000 nM at L-AChBP [1] (stopped-flow on pre-equilibrated complexes, biphasic curve, read-out: Kd/SFeq, second constant from a biphasic curve); 320 nM on L-AChBP [1] (setting [8]); 2.9 µM at A-AChBP [2] (setting [10]); 4.2 µM at A-AChBP [2] (setting [11]); 2400 ± 1500 nM on A-AChBP [3]. The Kd at L-AChBP [4] was 2.6 ± 1.9 µM. Also, the figures for the kon at L-AChBP [1] (setting [6]) and on A-AChBP [2] (setting [6]) were 6e+07 M⁻¹ s⁻¹ and 1.05e+08 M⁻¹ s⁻¹, respectively. In addition, the koff was 103 s⁻¹ on L-AChBP [1] (setting [7]), 112 s⁻¹ at L-AChBP [1] (setting [9]), 300 s⁻¹ at A-AChBP [2] (setting [7]) and 250 s⁻¹ on A-AChBP [2] (setting [9]).
For the molecule `CC1=NCCC[C@]12CCCCC21OCCO1` [Spiroimine (+)-4 R, 7-methyl-1,4-dioxa-8-azadispiro[4.0.5.4]pentadec-7-ene], the “higher affinity compared to enantiomer (−)-4 S” value on L-AChBP [1] (L-AChBP (text: the two AChBPs)) and at A-AChBP [2] (A-AChBP (text: the two AChBPs)) was “ca. 2 fold” each time. Moreover, the Kd at L-AChBP [1] (setting [8]) was 12000 nM; at L-AChBP [1] (setting [12]) it was around 10000 nM; at A-AChBP [2] (setting [10]) it was 2.2 µM; on A-AChBP [2] (setting [11]) it was 3.1 µM; at A-AChBP [3], 2300 ± 400 nM; at L-AChBP [4], 12 ± 3 µM. The molecule further had a kon on A-AChBP [2] (setting [6]) of 1.23e+08 M⁻¹ s⁻¹. The koff at A-AChBP [2] (setting [7]) was 267 s⁻¹; on A-AChBP [2] (setting [9]), 233 s⁻¹.
With `CC1=NCCC[C@@]12CCCCC21OCCO1` [Spiroimine (−)-4 S, 7-methyl-1,4-dioxa-8-azadispiro[4.0.5.4]pentadec-7-ene], the Kd on L-AChBP [1] (setting [5]) was 410 nM; at L-AChBP [1] (setting [8]), 320 nM; at L-AChBP [1] (setting [12]) it was around 100 nM; at A-AChBP [2] (setting [10]), 4.3 µM; at A-AChBP [2] (setting [11]), 5.4 µM; on A-AChBP [3], 2400 ± 500 nM. The Kd at L-AChBP [4] came to 3.4 µM. Further, the kon at L-AChBP [1] (setting [6]) was 1.3e+08 M⁻¹ s⁻¹; at A-AChBP [2] (setting [6]) it was 1.02e+08 M⁻¹ s⁻¹. Also, the koff on L-AChBP [1] (setting [7]) is 53.3 s⁻¹; on L-AChBP [1] (setting [9]) it was 103 s⁻¹; on A-AChBP [2] (setting [7]), 433 s⁻¹; at A-AChBP [2] (setting [9]), 400 s⁻¹.

Values taken from publication PMC11050823, “The Cyclic Imine Core Common to the Marine Macrocyclic Toxins Is Sufficient to Dictate Nicotinic Acetylcholine Receptor Antagonism” (Marine Drugs, 2024).
